Holding throughout (format): biochemical
One experiment has as its target PLK3 (Homo sapiens, UniProt Q9H4B4). Kind of experiment: PLK TR-FRET peptide assay, PLK3. Background: TR-FRET usually uses a lanthanide donor and a delayed reading to cut background.
For a further experiment, the target named is PLK1 (Homo sapiens, UniProt P53350). Nature of the experiment: PLK TR-FRET peptide assay, PLK1.
In a further experiment the target is PLK2 (Homo sapiens, UniProt Q9NYY3). Kind of experiment: PLK TR-FRET peptide assay, PLK2. The following applies: PLK TR-FRET peptide assay, read-out: Plk2 IC50.
PLK2, sequence (Q9NYY3 whole entry): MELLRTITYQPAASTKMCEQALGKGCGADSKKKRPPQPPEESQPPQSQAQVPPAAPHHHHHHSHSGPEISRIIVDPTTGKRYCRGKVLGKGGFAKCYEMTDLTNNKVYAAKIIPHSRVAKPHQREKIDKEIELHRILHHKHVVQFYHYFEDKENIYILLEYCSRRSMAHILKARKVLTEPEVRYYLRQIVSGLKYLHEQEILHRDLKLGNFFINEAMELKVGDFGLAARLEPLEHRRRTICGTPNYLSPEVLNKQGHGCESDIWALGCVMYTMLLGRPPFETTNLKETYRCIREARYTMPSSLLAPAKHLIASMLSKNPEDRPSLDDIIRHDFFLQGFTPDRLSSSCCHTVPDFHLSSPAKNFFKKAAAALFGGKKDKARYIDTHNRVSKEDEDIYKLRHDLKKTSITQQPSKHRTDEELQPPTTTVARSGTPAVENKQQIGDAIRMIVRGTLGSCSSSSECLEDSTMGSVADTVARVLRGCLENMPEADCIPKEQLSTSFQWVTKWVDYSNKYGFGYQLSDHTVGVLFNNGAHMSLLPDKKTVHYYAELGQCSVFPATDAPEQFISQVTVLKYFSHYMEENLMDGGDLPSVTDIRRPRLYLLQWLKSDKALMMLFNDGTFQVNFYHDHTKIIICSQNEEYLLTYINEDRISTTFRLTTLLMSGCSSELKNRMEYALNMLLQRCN
Where [1] appears, read: GST-PLK3, 15 min reaction, read-out: Plk3 IC50.

Each structure is given as a SMILES string. Like-named read-outs stand apart in the source and are kept apart here.

As a reminder, the IC50 is the concentration that inhibits the measured activity by half.

PLK3, sequence (Q9H4B4 whole entry): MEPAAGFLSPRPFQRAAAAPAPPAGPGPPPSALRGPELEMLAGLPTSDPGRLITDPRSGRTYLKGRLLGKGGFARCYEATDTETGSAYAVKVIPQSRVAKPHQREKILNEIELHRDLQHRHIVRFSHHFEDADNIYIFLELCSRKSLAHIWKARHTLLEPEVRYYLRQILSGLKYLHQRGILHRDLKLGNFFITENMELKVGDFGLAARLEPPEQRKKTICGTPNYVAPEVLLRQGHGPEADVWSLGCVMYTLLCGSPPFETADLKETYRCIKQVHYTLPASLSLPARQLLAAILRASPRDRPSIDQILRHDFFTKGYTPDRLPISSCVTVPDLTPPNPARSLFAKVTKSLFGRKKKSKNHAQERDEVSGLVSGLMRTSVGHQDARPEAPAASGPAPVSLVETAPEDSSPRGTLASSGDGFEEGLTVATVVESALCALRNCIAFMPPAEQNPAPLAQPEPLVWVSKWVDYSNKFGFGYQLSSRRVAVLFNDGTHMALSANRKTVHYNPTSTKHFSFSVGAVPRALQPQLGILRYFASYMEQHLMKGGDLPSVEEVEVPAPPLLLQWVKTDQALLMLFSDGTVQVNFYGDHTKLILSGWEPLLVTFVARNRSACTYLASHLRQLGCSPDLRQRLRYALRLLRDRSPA
PLK1, sequence (P53350 whole entry): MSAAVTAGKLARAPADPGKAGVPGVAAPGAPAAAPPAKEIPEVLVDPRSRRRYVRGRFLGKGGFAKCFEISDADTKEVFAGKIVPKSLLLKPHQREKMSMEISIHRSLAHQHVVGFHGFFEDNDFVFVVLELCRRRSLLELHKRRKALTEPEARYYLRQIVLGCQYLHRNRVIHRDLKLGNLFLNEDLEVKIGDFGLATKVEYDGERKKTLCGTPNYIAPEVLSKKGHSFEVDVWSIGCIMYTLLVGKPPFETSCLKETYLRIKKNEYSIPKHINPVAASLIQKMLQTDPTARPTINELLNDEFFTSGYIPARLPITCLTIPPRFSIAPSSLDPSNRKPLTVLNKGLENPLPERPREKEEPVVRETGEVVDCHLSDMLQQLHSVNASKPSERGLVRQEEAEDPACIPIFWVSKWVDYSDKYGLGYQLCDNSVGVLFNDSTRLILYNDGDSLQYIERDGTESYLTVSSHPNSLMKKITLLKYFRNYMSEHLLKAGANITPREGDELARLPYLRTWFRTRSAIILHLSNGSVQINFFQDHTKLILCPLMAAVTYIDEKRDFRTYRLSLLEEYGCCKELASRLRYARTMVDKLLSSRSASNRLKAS

In the case of `CC[C@@]12CCCN1c1nc(-n3ccnc3-c3cc(Cl)cc(Cl)c3)ncc1N(C)C2=O` [Example 184, (S)-2-(2-(3,5-dichlorophenyl)-1H-imidazol-1-yl)-6a-ethyl-5-methyl-6a,7,8,9-tetrahydropyrrolo[2,1-h]pteridin-6(5H)-one], the half-maximal inhibitory concentration (IC50) at PLK3 (setting [1]) is 10 to 50 µM; at PLK1 (GST-PLK1, 60 min reaction), 10 to 50 µM; on PLK2 (GST-PLK2, 60 min reaction) it was under 1 µM.
For `CC[C@@]12CCCN1c1nc(-n3nccc3-c3ccccc3)ncc1N(C)C2=O` [Example 193, (S)-6a-ethyl-5-methyl-2-(5-phenyl-1H-pyrazol-1-yl)-6a,7,8,9-tetrahydropyrrolo[2,1-h]pteridin-6(5H)-one], the IC50 lay within 1 to 10 µM at PLK3 (setting [1]); 1 to 10 µM at PLK1 (GST-PLK1, 60 min reaction); 1 to 10 µM at PLK2 (GST-PLK2, 60 min reaction).
Take `CC[C@@H]1C(=O)N(C)c2cnc(-n3ccnc3C)nc2N1C1CCCC1` [Example 27, (R)-8-cyclopentyl-7-ethyl-5-methyl-2-(2-methyl-1H-imidazol-1-yl)-7,8-dihydropteridin-6(5H)-one]: the IC50 at PLK3 (setting [1]) was over 50 µM; at PLK1 (GST-PLK1, 60 min reaction), 1 to 10 µM; on PLK2 (GST-PLK2, 60 min reaction), under 1 µM.
Take `CCC12CCCCCN1c1nc(-n3ccnc3-c3ccccc3)ncc1N(C)C2=O` (racemic) [Example 205, (+/−) 6a-ethyl-5-methyl-2-(2-phenyl-1H-imidazol-1-yl)-6a,7,8,9,10,11-hexahydroazepino[2,1-h]pteridin-6(5H)-one]: the half-inhibitory concentration (IC50) on PLK3 (setting [1]) was 10 to 50 µM; against PLK1 (GST-PLK1, 60 min reaction), 10 to 50 µM; at PLK2 (GST-PLK2, 60 min reaction), under 1 µM.
In the case of `CC[C@@H]1C(=O)N(C)c2cnc(-n3ccnc3-c3ccc(C#N)cc3)nc2N1C(C)C` [Example 227, (R)-4-(1-(7-ethyl-8-isopropyl-5-methyl-6-oxo-5,6,7,8-tetrahydropteridin-2-yl)-1H-imidazol-2-yl)benzonitrile], the IC50 on PLK3 (setting [1]) was 10 to 50 µM; against PLK1 (GST-PLK1, 60 min reaction), 10 to 50 µM; on PLK2 (GST-PLK2, 60 min reaction), under 1 µM.
On to `CC[C@@H]1C(=O)N(C)c2cnc(-n3ccnc3-c3ccncc3)nc2N1CCC(F)(F)F` [Example 234, (R)-7-ethyl-5-methyl-2-(2-(pyridin-4-yl)-1H-imidazol-1-yl)-8-(3,3,3-trifluoropropyl)-7,8-dihydropteridin-6(5H)-one], for which the IC50 is 10 to 50 µM on PLK3 (setting [1]); 1 to 10 µM on PLK1 (GST-PLK1, 60 min reaction); under 1 µM at PLK2 (GST-PLK2, 60 min reaction).
On to `CC[C@@H]1C(=O)N(C)c2cnc(-n3ncnc3-c3cccc4ncccc34)nc2N1C1CCC1` [Example 215, (R)-8-cyclobutyl-7-ethyl-5-methyl-2-(5-(quinolin-5-yl)-1H-1,2,4-triazol-1-yl)-7,8-dihydropteridin-6(5H)-one], for which the IC50 on PLK3 (setting [1]) was in the range of 1 to 10 µM; at PLK1 (GST-PLK1, 60 min reaction), 1 to 10 µM; at PLK2 (GST-PLK2, 60 min reaction), 1 to 10 µM.
As to `CN1C(=O)C2CC3CC3N2c2nc(-n3ccnc3-c3ccccc3)ncc21` (stereo not drawn) [Example 304, 5-Methyl-2-(2-phenyl-imidazol-1-yl)-7,7a,8,8a-tetrahydro-5H,6aH-1,3,5,8b-tetraaza-cyclopropa[4,5]cyclopenta[1,2-a]naphthalen-6-one], the IC50 on PLK3 (setting [1]) was over 50 µM; against PLK1 (GST-PLK1, 60 min reaction) it was over 50 µM; at PLK2 (GST-PLK2, 60 min reaction), 10 to 50 µM.
Consider `CC[C@@H]1C(=O)N(C)c2cnc(-n3ccnc3-c3ccc(F)cc3)nc2N1C(C)C` [Example 212, (R)-7-ethyl-2-(2-(4-fluorophenyl)-1H-imidazol-1-yl)-8-isopropyl-5-methyl-7,8-dihydropteridin-6(5H)-one], for which the IC50 at PLK3 (setting [1]) is 1 to 10 µM; against PLK1 (GST-PLK1, 60 min reaction), 1 to 10 µM; at PLK2 (GST-PLK2, 60 min reaction), under 1 µM.
`CC[C@@H]1C(=O)N(C)c2cnc(-n3ccnc3-c3ccc(F)c(Cl)c3)nc2N1C1CCOC1` (stereo partly drawn) [Example 232, (7R)-2-(2-(3-chloro-4-fluorophenyl)-1H-imidazol-1-yl)-7-ethyl-5-methyl-8-(tetrahydrofuran-3-yl)-7,8-dihydropteridin-6(5H)-one]: the IC50 at PLK3 (setting [1]) was 1 to 10 µM; on PLK1 (GST-PLK1, 60 min reaction), 1 to 10 µM; at PLK2 (GST-PLK2, 60 min reaction), under 1 µM.
Consider `CC[C@@H]1C(=O)N(C)c2cnc(-n3ccnc3-c3ccccc3)nc2N1C1COC1` [Example 335, (R)-7-ethyl-5-methyl-8-(oxetan-3-yl)-2-(2-phenyl-1H-imidazol-1-yl)-7,8-dihydropteridin-6(5H)-one], for which the half-inhibitory concentration (IC50) on PLK3 (setting [1]) was 10 to 50 µM; against PLK1 (GST-PLK1, 60 min reaction), 1 to 10 µM; on PLK2 (GST-PLK2, 60 min reaction), under 1 µM.
Turning to `CC[C@@H]1C(=O)N(C)c2cnc(-n3ccnc3-c3ccc(F)cn3)nc2N1CCC(F)(F)F` [Example 244, (R)-7-ethyl-2-(2-(5-fluoropyridin-2-yl)-1H-imidazol-1-yl)-5-methyl-8-(3,3,3-trifluoropropyl)-7,8-dihydropteridin-6(5H)-one], the half-maximal inhibitory concentration (IC50) on PLK3 (setting [1]) was over 50 µM; against PLK1 (GST-PLK1, 60 min reaction), 10 to 50 µM; on PLK2 (GST-PLK2, 60 min reaction), under 1 µM.
Turning to `CC[C@@H]1C(=O)N(C)c2cnc(-c3cnoc3-c3nccs3)nc2N1C(C)C` [Example 187, (R)-7-ethyl-8-isopropyl-5-methyl-2-(5-(thiazol-2-yl)isoxazol-4-yl)-7,8-dihydropteridin-6(5H)-one], the IC50 lay within 10 to 50 µM at PLK3 (setting [1]); 10 to 50 µM against PLK1 (GST-PLK1, 60 min reaction); 10 to 50 µM at PLK2 (GST-PLK2, 60 min reaction).
`CC[C@H]1C(=O)N(C)c2cnc(-c3cn[nH]c3-c3nccs3)nc2N1c1ccc(Cl)cc1` [Example 383, (S)-8-(4-chlorophenyl)-7-ethyl-5-methyl-2-(5-(thiazol-2-yl)-1H-pyrazol-4-yl)-7,8-dihydropteridin-6(5H)-one]: the IC50 on PLK3 (GST-PLK3, read-out: Plk3 IC50) is over 50 µM; on PLK1 (GST-PLK1), 10 to 50 µM; at PLK2 (GST-PLK2) it was 1 to 10 µM.
As to `CC(C)N1c2nc(-n3ccnc3-c3ccc(F)cc3)ncc2N(C)C(=O)C1(C)C` [Example 298, 2-(2-(4-fluorophenyl)-1H-imidazol-1-yl)-8-isopropyl-5,7,7-trimethyl-7,8-dihydropteridin-6(5H)-one], the IC50 was over 50 µM at PLK3 (setting [1]); over 50 µM at PLK1 (GST-PLK1, 60 min reaction); 1 to 10 µM on PLK2 (GST-PLK2, 60 min reaction).
Regarding `CC[C@@H]1C(=O)N(C)c2cnc(-c3ccncc3)nc2N1C(C)C` [Example 23, (R)-7-ethyl-8-isopropyl-5-methyl-2-(pyridin-4-yl)-7,8-dihydropteridin-6(5H)-one], the IC50 on PLK3 (setting [1]) is over 50 µM; against PLK1 (GST-PLK1, 60 min reaction) it was 1 to 10 µM; on PLK2 (GST-PLK2, 60 min reaction), under 1 µM.
For the compound `CCC12CCCCCN1c1nc(-n3ncnc3-c3ccccc3)ncc1N(C)C2=O` (racemic) [Example 216, (+/−) 6a-ethyl-5-methyl-2-(5-phenyl-1H-1,2,4-triazol-1-yl)-6a,7,8,9,10,11-hexahydroazepino[2,1-h]pteridin-6(5H)-one], the IC50 lay in the range of 10 to 50 µM on PLK3 (setting [1]); 1 to 10 µM at PLK1 (GST-PLK1, 60 min reaction); 1 to 10 µM on PLK2 (GST-PLK2, 60 min reaction).
Turning to `CC[C@@H]1C(=O)N(C)c2cnc(-n3ccnc3Cl)nc2N1C1CCCC1` [Example 292, (R)-2-(2-chloro-1H-imidazol-1-yl)-8-cyclopentyl-7-ethyl-5-methyl-7,8-dihydropteridin-6(5H)-one], the IC50 on PLK3 (setting [1]) is 10 to 50 µM; against PLK1 (GST-PLK1, 60 min reaction) it was 1 to 10 µM; on PLK2 (GST-PLK2, 60 min reaction) it was under 1 µM.
In the same order, the values of `CC[C@@H]1C(=O)N(C)c2cnc(-c3ccncc3CNS(=O)(=O)c3ccccc3)nc2N1C1CCCC1` [Example 125, (R)—N-((4-(8-cyclopentyl-7-ethyl-5-methyl-6-oxo-5,6,7,8-tetrahydropteridin-2-yl)pyridin-3-yl)methyl)benzenesulfonamide] are 10 to 50 µM, 10 to 50 µM and 1 to 10 µM.
Consider `CC[C@@H]1C(=O)N(C)c2cnc(-c3c[nH]nc3-c3ccccc3)nc2N1C(C)C` [Example 164, (R)-7-ethyl-8-isopropyl-5-methyl-2-(3-phenyl-1H-pyrazol-4-yl)-7,8-dihydropteridin-6(5H)-one], for which the IC50 was under 1 µM on PLK3 (setting [1]); under 1 µM at PLK1 (GST-PLK1, 60 min reaction); under 1 µM on PLK2 (GST-PLK2, 60 min reaction).
As for `CC[C@@H]1C(=O)N(C)c2cnc(-n3ccnc3-c3nccs3)nc2N1C(C)C` [Example 151, (R)-7-ethyl-8-isopropyl-5-methyl-2-(2-(thiazol-2-yl)-1H-imidazol-1-yl)-7,8-dihydropteridin-6(5H)-one], the IC50 on PLK3 (setting [1]) was 10 to 50 µM; against PLK1 (GST-PLK1, 60 min reaction) it was 1 to 10 µM; at PLK2 (GST-PLK2, 60 min reaction) it was under 1 µM.
In the case of `CC[C@@H]1C(=O)N(C)c2cnc(-c3ccc(S(C)(=O)=O)cc3)nc2N1C1CCCC1` [Example 64, (R)-8-cyclopentyl-7-ethyl-5-methyl-2-(4-(methylsulfonyl)phenyl)-7,8-dihydropteridin-6(5H)-one], the IC50 is 1 to 10 µM on PLK3 (setting [1]); under 1 µM at PLK1 (GST-PLK1, 60 min reaction); under 1 µM at PLK2 (GST-PLK2, 60 min reaction).
As to `[2H]C([2H])([2H])N1C(=O)C(C([2H])([2H])C([2H])([2H])[2H])N(C([2H])(C([2H])([2H])[2H])C([2H])([2H])[2H])c2nc(-n3ccnc3-c3cccc(OC(F)(F)F)c3)ncc21` (stereo not drawn) [Example 160, 7-perdeuteroethyl-8-perdeuteroisopropyl-5-trideuteromethyl-2-(2-(3-(trifluoromethoxy)phenyl)-1H-imidazol-1-yl)-7,8-dihydropteridin-6(5H)-one], the IC50 on PLK3 (setting [1]) was 10 to 50 µM; against PLK1 (GST-PLK1, 60 min reaction) it was 1 to 10 µM; on PLK2 (GST-PLK2, 60 min reaction) it was under 1 µM.
`CC[C@]12CCCCN1c1nc(-n3ccnc3-c3cc(F)cc(F)c3)ncc1N(C)C2=O` [Example 250, (R)-2-(2-(3,5-difluorophenyl)-1H-imidazol-1-yl)-6a-ethyl-5-methyl-7,8,9,10-tetrahydro-5H-pyrido[2,1-h]pteridin-6(6aH)-one]: the IC50 at PLK3 (setting [1]) is over 50 µM; against PLK1 (GST-PLK1, 60 min reaction), over 50 µM; at PLK2 (GST-PLK2, 60 min reaction), over 50 µM.
Consider `CC[C@@H]1C(=O)N(C)c2cnc(-c3cccc(S(C)(=O)=O)c3)nc2N1C1CCCC1` [Example 71, (R)-8-cyclopentyl-7-ethyl-5-methyl-2-(3-(methylsulfonyl)phenyl)-7,8-dihydropteridin-6(5H)-one], for which the concentration for half-maximal inhibition (IC50) on PLK3 (setting [1]) lay within 10 to 50 µM; against PLK1 (GST-PLK1, 60 min reaction), 1 to 10 µM; on PLK2 (GST-PLK2, 60 min reaction), 1 to 10 µM.

Source of the values: patent publication US8541418B2, “Inhibitors of polo-like kinase” (Elan Pharmaceutical, Inc., priority 2009, dated 2013).
